Assay results from ChEMBL document CHEMBL1201862, “PubChem BioAssay data set” (2004).
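Exposure lasted 48 hours, with cells grown in 96-well plates and compounds tested at five concentrations. GI50 is the concentration that inhibits growth by half.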 The source made the active and inactive calls. No stated cut-off is given here; in the data, active = GI50 up to about 1.1 µM and inactive = higher.

Legend:
Assay in all cases: NCI-60 cell line screen, 48 h
BT-549 = tested on: BT-549
COLO 205 = tested on: COLO 205
HOP-92 = tested on: HOP-92
HT-29 = tested on: HT-29
K562 = tested on: K562
KM12 = tested on: KM12
MDA-N = tested on: MDA-N
Malme-3M = tested on: Malme-3M
NCI-H460 = tested on: NCI-H460
PC-3 = tested on: PC-3
RXF 393 = tested on: RXF 393
SF-268 = tested on: SF-268
SF-295 = tested on: SF-295
SNB-19 = tested on: SNB-19
SNB-75 = tested on: SNB-75
SR = tested on: SR
SW-620 = tested on: SW-620
TK-10 = tested on: TK-10
UACC-257 = tested on: UACC-257
UACC-62 = tested on: UACC-62

Measured: GI50

c1ccc2c(CN3CCN(Cc4c[nH]c5ccccc45)CC3)c[nH]c2c1
inactive: BT-549 22 µM | COLO 205 5.58 µM | HOP-92 14.8 µM | HT-29 17.5 µM | K562 12.7 µM | KM12 16.8 µM | MDA-N 14.9 µM | Malme-3M 15.3 µM | NCI-H460 12.7 µM | PC-3 18.6 µM | RXF 393 14.3 µM | SF-268 17.4 µM | SF-295 16 µM | SNB-19 21.6 µM | SNB-75 13.3 µM | SR 19.7 µM | SW-620 28 µM | TK-10 15.6 µM | UACC-257 14.4 µM | UACC-62 16.3 µM

COc1cc(/C=C2\CCC(C)C3=C(c4cc(OC)c(OC)c(OC)c4)C(C#N)=C(N)OC32)cc(OC)c1OC (stereo not given)
inactive: BT-549 5.97 µM | COLO 205 2.11 µM | HOP-92 3.17 µM | HT-29 2 µM | K562 2.85 µM | KM12 3.86 µM | MDA-N 2.47 µM | Malme-3M 2.59 µM | NCI-H460 3.57 µM | PC-3 1.83 µM | RXF 393 1.65 µM | SF-268 3.59 µM | SF-295 3.65 µM | SNB-19 11.6 µM | SNB-75 1.36 µM | SR 1.49 µM | SW-620 3.97 µM | TK-10 4.21 µM | UACC-257 4.32 µM | UACC-62 2.45 µM
